Measured values: US20100093643A1 (priority 2006, published 2010)
Several values for one entry are separate records, joined by “and”; a condition that tells them apart may be missing. Identical values can stand only once. Like-named read-outs stand apart in the source and are kept apart here.

What was measured:
[1] = tested on: rats with ligature of coronary arteries; assay type: in vivo, rat; parameters: myocardial necrosis size: unit not given here; conditions: for CPK / HF-CPK / Lactate: blood; for Lethality %: rats with sharp myocardial ischemia
[2] = tested on: BALB mice under normobaric hypoxic hypoxia; test: Antihypoxic action, lifetime of mice under normobaric hypoxic hypoxia; assay type: in vivo, mouse
Procedure: Antihypoxic action of the new enkephalin analogue (1) was determined by the measurement of lifetime duration in mice under the normobaric hypoxic hypoxia conditions.
The experiments were conducted on BALB-bread mice weighing 20 to 22 g. The normobaric hypoxic hypoxia conditions were modelled by placing the animals in hermetic camera, containing Ca(OH)2 to absorb the excess of carbon dioxide. The substances studied were injected intraperitoneally 1 min. before the placing of animals in the hermetic camera. The peptides were used at doses 1.0 mg/kg. […] Sodium oxybutyrate at highest therapeutic dose was used as comparative compound. The lifetime was estimated as the time when the animals stopped making breathing movements.

outbreed male mice = test: Analgesic activity in vivo, tail pinch method; parameters: species or system mouse
Procedure: Analgesic activity of enkephalin analogues was determined by a “tail pinch” method [Ueda H.; Amano H.; Shiomi H.; Takagi H. (1979). Eur. J. Pharmacol., 56, 265-268]. […] Ten mice were used in each experiment.
The studied substances were dissolved in sterile physiological solution and injected in J-shaped needles into the brain of conscious mice at a dose of 10 μl. Control animals received 10 μl of sterile physiological solution. Intravenous administration was into the tail vein. Analgesic activity was tested by pinching the mouse tail with an artery clip with 200 g pressure. The mice who bit the clip within one second after application of pinching were selected for assays. Analgesic activity was defined as latency on the biting response greater than 6 sec. The analgesic tests were performed 5, 15, 30, 60 and 90 min after administration and then every 30 min until the analgesic reaction was stopped. The analgesic activity of the peptides was expressed as a percentage of mice not showing the biting response.

CD-1 male mice = test: Analgesic activity in vivo, hot plate method; parameters: species or system mouse
Procedure: Male Swiss albino mice (CD1), weighing 20-22 g were used throughout the study. The animals were housed in solid bottom polycarbonate cages with access to standard laboratory diet (Laboratory Rodent Diet PK-120) and tap water ad libitum, under controlled environmental conditions (temperature:18-26° C., 8 a.m. to 8 p.m. light-dark cycle). Mice were tested only once.
The Hot-plate-meter represents the thermostatic controllable, electro-heated up surface limited by transparent walls (L: 25 cm, W: 25 cm, H: 35 cm). The forward panel of the device is equipped by buttons for the control of time and a temperature mode (Columbus Instruments).
The i.v. administration was performed via tail vein as a bolus injection. The doses for all animals were calculated on the basis of the last value of the individual body weight.
The animals accurately were placed on the preheated hot plate (55±0.5° C.) after i.v. injection of saline or peptides and the latencies to first paw licking and first jumping were measured. The other behavioral reactions were ignored. The animals were removed from a hot surface after the first jumping. A cut-off time of 180 s was used to avoid tissue damage.
To evaluate the hot-plate test responses, the control latencies (t0) and test latencies (t1) were determined after injection of saline or peptides, respectively. The percentage of the maximal possible effect (% MPE) was calculated as % MPE=(t1−t0)/(t2−t0)×100, where the cut-off time (t2) was 180 s.
The latency for the first jumping is considered as the most indicative in the hot-plate test. The area under the time-response curve was calculated by methods described elsewhere (Cicero and Meyer, 1973), to assess the magnitude of antinociception (FIG. 5, see appendix).
The median analgesic dose (ED50) also has been calculated for this parameter.

[3] = target: T1, peripheral opiate receptors, guinea pig ileum (GPI, predominantly μ-type of opioid receptor) (Cavia porcellus, UniProt A0ACM8Q262); conditions: GPI assay
T1 construct: other: guinea pig ileum longitudinal muscle, electrical stimulation; GPI Relative potency, %; other: GPI assay

[4] = tested on: peripheral opiate receptors, guinea pig ileum (GPI, predominantly μ-type of opioid receptor); conditions: ratio of relative potencies GPI to MVD
[5] = tested on: peripheral opiate receptors, mouse vas deferens (MVD); test: MVD bioassay, suppression of electrically induced contraction
Procedure: Brit. J. Pharmacol., 35, 10-28]. The longitudinal muscle of ileum from guinea pig of any sex (weight 350-500 g) was carefully separated from underlying circular muscle and placed into a small bath with Krebs solution at 36° C.
The solution was constantly aerated. A constant load of 0.2 g was applied to the tissue. The tissue was stimulated by means of the ring platinum electrodes by single impulses of […] duration with 0.1 Hz frequency. […] Vas deferens of mice (weight 27 to 30 g) were placed into a bath with modified Krebs solution (not containing magnesium sulphate) at 31° C. The substances under study were dissolved in distilled water. The inhibiting activity of the compounds was determined by accumulating doses, adding increasing concentrations of the compounds without washing. The activity of the preparations was expressed as IC50 in nmol/l. The results obtained in 8-10 tests were statistically processed using Student's criterion.

[6] = 6 hours after ligature, compound (1) 0.05 mg/kg
[7] = 24 hours after ligature, compound (1) 0.05 mg/kg, nitroglycerine highest therapeutic dose

T1 sequence (A0ACM8Q262 1-400): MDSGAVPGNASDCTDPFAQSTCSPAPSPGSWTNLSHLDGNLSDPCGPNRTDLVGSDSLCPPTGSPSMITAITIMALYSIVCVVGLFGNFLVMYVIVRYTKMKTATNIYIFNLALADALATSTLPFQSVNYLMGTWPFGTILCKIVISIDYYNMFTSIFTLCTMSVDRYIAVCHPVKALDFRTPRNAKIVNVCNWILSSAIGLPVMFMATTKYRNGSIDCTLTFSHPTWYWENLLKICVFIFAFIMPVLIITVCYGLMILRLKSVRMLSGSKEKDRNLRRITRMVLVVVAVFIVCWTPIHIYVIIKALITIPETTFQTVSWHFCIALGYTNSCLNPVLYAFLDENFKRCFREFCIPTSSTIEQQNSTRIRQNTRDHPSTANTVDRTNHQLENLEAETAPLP

## CC(=O)NCCCC(NC(=O)C(N)Cc1ccc(O)cc1)C(=O)NCC(=O)NC(Cc1ccc([N+](=O)[O-])cc1)C(N)=O [Peptide 1, Tyr-(N^δ—Ac)-D-Orn-Gly-Phe(p-NO2)—NH2]
[1]; 0.05 mg/kg i.p. 30 min after coronary occlusion, observation time 6 hours
  myocardial necrosis size: 40.70 ± 1.52
[1]; 0.05 mg/kg i.p. 30 min after coronary occlusion, observation time 12 hours
  myocardial necrosis size: 47.51 ± 1.63
[1]; 0.5 mg/kg i.p. 30 min after coronary occlusion, observation time 6 hours
  myocardial necrosis size: 40.05 ± 1.93
[1]; 0.5 mg/kg i.p. 30 min after coronary occlusion, observation time 12 hours
  myocardial necrosis size: 46.64 ± 2.20
[1]; [6]
  Glycogen of heart: 1.00 ± 0.12 g/kg
  Glycogen of liver: 6.98 ± 1.02 g/kg
  CPK: 93.5 ± 5.3 units/l
  HF-CPK: 15.3 ± 0.7 units/l
  Lactate: 1.61 ± 0.45 mmol/L
[1]; 24 hours after ligature, compound (1) 0.05 mg/kg
  Glycogen of heart: 1.11 ± 0.17 g/kg
[1]; [7]
  CPK: 86.6 ± 4.9 units/l
  HF-CPK: 12.3 ± 0.7 units/l
  Lactate: 1.70 ± 0.09 mmol/L
[1]; 0.05 mg/kg
  Lethality %: 33%
[1]; 0.5 mg/kg
  Lethality %: 27%
[2]; 1.0 mg/kg i.p.
  lifetime longer than in the control experiments: 57%
[2]; 1.0 mg/kg i.p. 1 min before hermetic chamber
  Duration of life: 16.9 ± 1.1 min
Outbreed male mice; intracisternal administration
  Duration of analgesic effect at ED60-80: 120 min
  ED50 nmol/animal (dose interval): 0.02 (0.01-0.04) nmol/animal
  Relative analgesic activity morphine = 1: 60
Outbreed male mice; intravenous administration
  Duration of analgesic effect at ED60-80: 60 min
  ED50 μmol/kg (dose interval): 8.0 (0-25) μmol/kg
  Relative analgesic activity morphine = 1: 2 and 2.2
CD-1 male mice; intravenous administration, time point of 15 min
  ED50 (jump latency): 1.27 mg/kg
CD-1 male mice; intravenous, from ED50 at 15 min
  analgesic activity exceeding that of morphine: 2 times
[3]
  activity compared with morphine: more active than morphine by one order
[4]
  GPIrel/MVDrel: 46
[5]; [Leu^5]-enkephalin = 100
  MVD Relative potency, %: 52%
[5]; mouse vas deferens, electrical stimulation
  IC50: 38.5 ± 20.1 nM
